Test results: patent US20220144826A1, “Heteroaromatic and Heterobicyclic Aromatic Derivatives for the Treatment of Ferroptosis-Related Disorders” (COLLABORATIVE MEDICINAL DEVELOPMENT, LLC, priority 2019, published 2022)

Tested on: N27 rat dopaminergic neural cells
Test: MTT assay in N27 rat dopaminergic neural cells: inhibition of RSL3-induced cell death (ferroptosis)
Format: cell-based
Settings: Rattus norvegicus, N27, 24 h, ferroptosis induced by 0.5 μM RSL3, 24 hours, viability by MTT
Description: MTT Assay in N27 Rat Dopaminergic Neural Cells
N27 rat dopaminergic neural cells (Millipore, SCC048) were cultured in RPMI-1640 media (Wisent, 350-000) supplemented with 1×GlutaMAX (Gibco, 35050-061), 10% FBS (embryonic stem cell qualified; Wisent, 920-040), and 1× Penicillin-Streptomycin (Wisent, 450-201). Cells were grown in humidified tissue culture incubator at 37° C. with 5% CO2, for up to 10 passages. To evaluate the ability of test compounds to inhibit RSL3-induced cell death, N27 cells were seeded in clear 96-well tissue culture plates (Sarstedt, 83.3924) at a density of 15,000 cells/well. On the next day, the medium was changed to fresh complete RPMI-1640. Eight-point dilution series of test compounds were added to the cells. Then, ferroptosis was induced by addition of 0.5 μM RSL3 (vehicle-treated cells served as control). Ferrostatin-1 (Fer-1) was included in each assay as control inhibitor of ferroptosis. Plates were incubated for 24 hours at 37° C. in a tissue culture incubator, then cell viability was determined by MTT assay. Briefly, Thiazolyl Blue Tetrazolium Bromide [3-(4,5-dimethylthiazol-2-yl)-2,5-diphenyltetrazolium bromide or “MTT” ] (Sigma) stock solution (5 mg/mL in PBS, sterilized by filtration) was diluted 1:1 with complete growth medium, and added on the cells to a final concentration of 0.5 mg/mL. Cells were incubated with MTT for 4 hours at 37° C., protected from light, in a humidified, 5% CO2 atmosphere. Medium was then completely removed from the wells by gentle aspiration and converted MTT formazan crystals were dissolved in 150 μL of DMSO. Absorbance of converted dye was measured at 595 nm with background subtraction at 690 nm using the BioTek Cytation5 Microplate Reader. Blank reading (absorbance from wells containing media and vehicle only, no cells) was removed from all sample wells. Viability was calculated as a percentage of control cells (vehicle-treated cells were set as 100% viability). Dose-response curves were drawn and IC50 values were calculated using GraphPad Prism software, version 7.

OC(c1ccc(F)cc1)c1nc2c(c(NC3CCCC3)n1)NCCC2 (stereo not shown) [Compound A-11, [4-(cyclopentylamino)-5,6,7,8-tetrahydropyrido[3,2-d]pyrimidin-2-yl]-(4-fluorophenyl)methanol] was tested. Which IC50 did it give?
Its IC50 is 36 nM.

How did the IC50 turn out when CON(C)C(=O)c1ccc2c(c1)C=CC(C)(C)N2 [Compound B-065] was run?
The IC50 was > 3000 nM.

O=C(c1ccc(F)cc1)c1nc2c(c(NC3CCCC3)n1)NCCC2 [Compound A-17, [4-(cyclopentylamino)-5,6,7,8-tetrahydropyrido[3,2-d]pyrimidin-2-yl]-(4-fluorophenyl)methanone] was tested. Which IC50 did it give?
The IC50 was 123 nM.

CCCCC(=O)c1cc2c(c(NC(C)(C)C)n1)NCC(C(F)(F)F)C2 (stereo not shown) [Compound R-830] was tested. Which IC50 did it give?
Its IC50 is 36 nM.

For CC(C)(C)Nc1ccc(-c2ccncc2)nc1NC1CCCC1 [Compound L-04, N^3-tert-butyl-N^2-cyclopentyl-6-(4-pyridyl)pyridine-2,3-diamine], which IC50 is on record?
Its IC50 is 5 nM.

For CCCCC(O)c1nc2c(c(NC(C)(C)C)n1)NCCC2 (stereo not shown) [Compound A-00, 1-[4-(tert-butylamino)-5,6,7,8-tetrahydropyrido[3,2-d]pyrimidin-2-yl]pentan-1-ol], which IC50 is on record?
Its IC50 is 139 nM.

CCCCC(=O)c1cc2c(c(N3CCCC3=O)c1)NCCC2 [Compound Q-979, 1-(6-pentanoyl-1,2,3,4-tetrahydroquinolin-8-yl)pyrrolidin-2-one] was tested. Which IC50 did it give?
The IC50 was 1150 nM.

CCC/C=C/c1nc(NC2CCCC2)c2c(n1)SCC(=O)N2 [Compound B-600, 4-(cyclopentylamino)-2-[(1E)-pent-1-en-1-yl]-5H,6H,7H-pyrimido[4,5-b][1,4]thiazin-6-one] was tested. Which IC50 did it give?
The IC50 was ≥ 3000 nM.

For CCCCC(=O)c1cc2c(c(N(S(=O)(=O)CC(C)C)S(=O)(=O)CC(C)C)c1)NCCC2 [Compound B-248, N-isobutylsulfonyl-2-methyl-N-(6-pentanoyl-1,2,3,4-tetrahydroquinolin-8-yl)propane-1-sulfonamide], which IC50 is on record?
Its IC50 is > 3000 nM.

For CCCCC(=O)c1cc(N)c2c(c1)CCCN2 [Compound B-059, 1-(8-amino-1,2,3,4-tetrahydroquinolin-6-yl)pentan-1-one], which IC50 is on record?
The IC50 was 149 nM.

For CCC(C)Nc1ccc(C(F)(F)F)nc1NC1CCCC1 (stereo not shown) [Compound K-65, N^2-cyclopentyl-N^3-sec-butyl-6-(trifluoromethyl)pyridine-2,3-diamine], which IC50 is on record?
The IC50 was 45 nM.

CC1(Nc2nc(-c3ccncc3)nc3c2NCCC3)CCOC1 (stereo not shown) [Compound P-71, N-(3-methyltetrahydrofuran-3-yl)-2-(4-pyridyl)-5,6,7,8-tetrahydropyrido[3,2-d]pyrimidin-4-amine] was tested. Which IC50 did it give?
The IC50 was 463 nM.

Which IC50 does the source give for CCCCC(=O)c1cc2c(c(NC3CCCC3)c1)OCCC2 [Compound B-035, 1-[8-(cyclopentylamino)-3,4-dihydro-2H-1-benzopyran-6-yl]pentan-1-one] here?
Its IC50 is > 3000 nM.

Which IC50 does the source give for CCCC(=O)c1ccc(NC(C)CC)c(NC2CCCC2)n1 [Compound L-34, 1-[6-(cyclopentylamino)-5-(sec-butylamino)-2-pyridyl]butan-1-one] here?
Its IC50 is 21 nM.

CNC(=O)c1nc(-c2ccc(C)cc2)nc2c1NC(C)(C)N2C1CCCC1 [Compound K-34] was tested. Which IC50 (cell unit uM) did it give?
Its IC50 is > 10000 nM.

How did the IC50 turn out when COc1ccc(-c2ccc(NC3COC3)c(NC3CCCC3)n2)cc1 [Compound H-87, N^2-cyclopentyl-6-(4-methoxyphenyl)-N^3-(oxetan-3-yl)pyridine-2,3-diamine] was run?
The IC50 was 3 nM.

How did the IC50 turn out when CC#Cc1nc2c(c(NC3CCCC3)n1)NCCC2 [Compound A-12, N-cyclopentyl-2-prop-1-ynyl-5,6,7,8-tetrahydropyrido[3,2-d]pyrimidin-4-amine] was run?
Its IC50 is 109 nM.

For c1cncc(-c2ccc(NC3COC3)c(NC3CCCC3)n2)c1 [Compound H-75, N^2-cyclopentyl-N^3-(oxetan-3-yl)-6-(3-pyridyl)pyridine-2,3-diamine], which IC50 is on record?
The IC50 was 44 nM.

With C1CNc2c(nc(C3CCCC3)nc2NC2CCCC2)C1 [Compound B-456, N,2-Dicyclopentyl-5,6,7,8-tetrahydropyrido[3,2-d]pyrimidin-4-amine] as the molecule, how does the IC50 read?
Its IC50 is 153 nM.

CCCCC(=O)c1cc2c(c(OC3CCCC3)c1)NCCC2 [Compound Q-980, 1-[8-(cyclopentoxy)-1,2,3,4-tetrahydroquinolin-6-yl]pentan-1-one] was tested. Which IC50 did it give?
The IC50 was > 3000 nM.

Which IC50 does the source give for Cc1ccc(-c2ccc(NC(C)(C)C)c(NC(C)(C)C)n2)cc1 [Compound L-03, N^2,N^3-di-tert-butyl-6-(p-tolyl)pyridine-2,3-diamine] here?
The IC50 was 14 nM.

How did the IC50 turn out when CC1(Nc2nc(-c3ccccn3)ccc2NC2CCOC2)CCOC1 [Compound L-23, N^2-(3-methyltetrahydrofuran-3-yl)-6-(2-pyridyl)-N^3-tetrahydrofuran-3-yl-pyridine-2,3-diamine] was run?
Its IC50 is 141 nM.

Which IC50 does the source give for CCOC(=O)c1cc(N)c2c(c1)CCC(C)(C)N2 [Compound B-256] here?
The IC50 was 3820 nM.

For CCCCC(=O)c1nc2c(c(Nc3ccccn3)n1)NCCC2 [Compound G-65, 1-[4-(2-pyridylamino)-5,6,7,8-tetrahydropyrido[3,2-d]pyrimidin-2-yl]pentan-1-one], which IC50 (cell unit uM) is on record?
Its IC50 is > 10000 nM.

CCC/C=C/c1nc(NC2CCOC2)c2c(n1)OCC(=O)N2 (stereo not shown) [Compound B-603, 4-[(oxolan-3-yl)amino]-2-[(1E)-pent-1-en-1-yl]-5H,6H,7H-pyrimido[4,5-b][1,4]oxazin-6-one] was tested. Which IC50 did it give?
Its IC50 is > 3000 nM.

CCC(C)Nc1ccc(-c2ccccn2)nc1NC1(C)CCOC1 [Compound L-22, N^2-(3-methyltetrahydrofuran-3-yl)-6-(2-pyridyl)-N^3-sec-butyl-pyridine-2,3-diamine] was tested. Which IC50 did it give?
Its IC50 is 14 nM.

For CCCCCc1nc2c(c(NC3CCCC3)n1)NCCC2 [Compound B-349, N-Cyclopentyl-2-pentyl-5,6,7,8-tetrahydropyrido[3,2-d]pyrimidin-4-amine], which IC50 is on record?
The IC50 was 170 nM.

How did the IC50 turn out when CC1(Nc2nc(-c3ccc(F)cc3)ccc2NC2CCOCC2)CCOC1 (stereo not shown) [Compound N-53, 6-(4-fluorophenyl)-N^2-(3-methyltetrahydrofuran-3-yl)-N^3-tetrahydropyran-4-yl-pyridine-2,3-diamine] was run?
The IC50 was 1 nM.

How did the IC50 turn out when CCCCC(=O)c1cc(F)c2c(c1)CCCN2 [Compound B-132] was run?
Its IC50 is > 3000 nM.

With CCCCC(=O)c1cc2c(c(NS(=O)(=O)CC(C)C)c1)NCCC2 [Compound B-251, 2-methyl-N-(6-pentanoyl-1,2,3,4-tetrahydroquinolin-8-yl)propane-1-sulfonamide] as the molecule, how does the IC50 read?
The IC50 was 9300 nM.

How did the IC50 turn out when CCCCC(OC)c1cc2c(c(Nc3ccccn3)c1)NCCC2 (stereo not shown) [Compound B-397, 6-(1-methoxypentyl)-N-(2-pyridyl)-1,2,3,4-tetrahydroquinolin-8-amine] was run?
The IC50 was 70 nM.

How did the IC50 turn out when CCCCC(=O)c1ccc2c(c1)C=CC(C)(C)N2 [Compound B-100, 1-(2,2-dimethyl-1,2-dihydroquinolin-6-yl)pentan-1-one] was run?
The IC50 was 7440 nM.

CC1(Nc2nc(-c3cccnc3)ccc2NC2CCOC2)CCOC1 [Compound L-42, N^2-(3-methyltetrahydrofuran-3-yl)-6-(3-pyridyl)-N^3-tetrahydrofuran-3-yl-pyridine-2,3-diamine] was tested. Which IC50 did it give?
The IC50 was 285 nM.

With CCOC(=O)c1ccc(NC2CCCCC2)c(N)n1 [Compound B-626, FER-1] as the molecule, how does the IC50 read?
Its IC50 is 108 nM.

For CCC(C)Nc1cnc(-c2cncnc2)nc1NC1CCCC1 (stereo not shown) [Compound F-81, N^4-cyclopentyl-2-pyrimidin-5-yl-N^5-sec-butyl-pyrimidine-4,5-diamine], which IC50 is on record?
The IC50 was 121 nM.

With CCC(C)Nc1ccc(-c2ccncc2)nc1NC1CCCC1 (stereo not shown) [Compound H-76, N^2-cyclopentyl-6-(4-pyridyl)-N^3-sec-butyl-pyridine-2,3-diamine] as the molecule, how does the IC50 read?
The IC50 was 6 nM.

With CC(C)=Cc1nc(C)nc(NC2CCCC2)c1N [Compound F-99, N^4-cyclopentyl-2-methyl-6-(2-methylprop-1-enyl)pyrimidine-4,5-diamine] as the molecule, how does the IC50 read?
Its IC50 is > 625 nM.

For CCCCC(=O)c1nc2c(c(N3CCCC3)n1)NCCC2 [Compound A-18, 1-(4-pyrrolidin-1-yl-5,6,7,8-tetrahydropyrido[3,2-d]pyrimidin-2-yl)pentan-1-one], which IC50 is on record?
Its IC50 is 217 nM.

How did the IC50 turn out when CCCCC(=O)c1cc2c(c(NC3CCCC3)n1)NCCC2 [Compound B-647, 1-[8-(cyclopentylamino)-1,2,3,4-tetrahydro-1,7-naphthyridin-6-yl]pentan-1-one] was run?
Its IC50 is 8 nM.

With Cc1ccc(-c2nc(NC3CCCC3)c3c(n2)C(=O)N(C)C(C)(C)N3)cc1 [Compound K-36, 8-(cyclopentylamino)-2,2,3-trimethyl-6-(p-tolyl)-1H-pyrimido[5,4-d]pyrimidin-4-one] as the molecule, how does the IC50 read?
Its IC50 is 525 nM.

With CCOC(=O)c1cc(N)c2c(c1)OCCN2 [Compound I-85] as the molecule, how does the IC50 read?
The IC50 was > 1000 nM.

CCOC(=O)c1cc2c(c(NC3CCCC3)c1)NC(=O)CC2 [Compound B-148] was tested. Which IC50 did it give?
Its IC50 is 1670 nM.

For CCC(C)Nc1cnc(-c2ccncc2)nc1NC1CCCC1 (stereo not shown) [Compound F-88, N^4-cyclopentyl-2-(4-pyridyl)-N^5-sec-butyl-pyrimidine-4,5-diamine], which IC50 is on record?
The IC50 was 106 nM.
